Assays:
Assay type in all cases: in vivo
[1] = system: oat, wild (wild oat Avena fatua); test: Test C preemergence, plant response rating
corn (Zea mays) = test: Test C postemergence, plant response rating; details: for Corn plant response rating: scale 0 to 100 (0 no effect, 100 complete control)
In short: (§1)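 Visual injury score, 0 = no effect, 100 = complete control, assigned against untreated controls after 13 to 15 d in the greenhouse. Compounds were applied in a surfactant-containing non-phytotoxic solvent mix, preemergence to seeded loam/sand or silt loam soil, or postemergence to 1- to 4-leaf plants (2 to 18 cm).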

[2] = system: foxtail, giant (giant foxtail, Setaria faberii); test: Test C postemergence, plant response rating; details: for Foxtail, Giant plant response rating: scale 0 to 100 (0 no effect, 100 complete control)
In short: as §1

[3] = system: velvetleaf (Abutilon theophrasti); test: Test C postemergence, plant response rating
In short: as §1

[4] = system: barnyardgrass (Echinochloa crus-galli); test: Test C postemergence, plant response rating; details: for Plant response rating, Barnyardgrass: scale 0 to 100; for Barnyardgrass plant response rating: scale 0 to 100 (0 no effect, 100 complete control)
In short: as §1

[5] = system: nutsedge, yellow (yellow nutsedge, Cyperus esculentus); test: Test C postemergence, plant response rating; details: for Nutsedge, Yellow plant response rating: scale 0 to 100 (0 no effect, 100 complete control)
In short: as §1

[6] = system: oat, wild (wild oat Avena fatua); test: Test C postemergence, plant response rating; details: for Oat, Wild plant response rating: scale 0 to 100 (0 no effect, 100 complete control)
In short: as §1

[7] = system: ragweed (common ragweed, Ambrosia elatior); test: Test C postemergence, plant response rating; details: for Ragweed plant response rating: scale 0 to 100 (0 no effect, 100 complete control)
In short: as §1

[8] = system: lambsquarters (Chenopodium album); test: Test C postemergence, plant response rating; details: for Lambsquarters plant response rating: scale 0 to 100 (0 no effect, 100 complete control)
In short: as §1

[9] = system: wheat (winter wheat, Triticum aestivum); test: Test C postemergence, plant response rating
In short: as §1

[10] = system: galium (catchweed bedstraw, Galium aparine); test: Test C postemergence, plant response rating; details: for Galium plant response rating: scale 0 to 100 (0 no effect, 100 complete control)
In short: as §1

[11] = system: waterhemp (common waterhemp, Amaranthus rudis); test: Test C postemergence, plant response rating
In short: as §1

[12] = system: crabgrass, large (large crabgrass, Digitaria sanguinalis); test: Test C postemergence, plant response rating; details: for Crabgrass, Large plant response rating: scale 0 to 100 (0 no effect, 100 complete control)
In short: as §1

[13] = system: blackgrass (Alopecurus myosuroides); test: Test C postemergence, plant response rating; details: for Plant response rating, Blackgrass: scale 0 to 100; for Blackgrass plant response rating: scale 0 to 100 (0 no effect, 100 complete control)
In short: as §1

soybean (Glycine max) = test: Test C postemergence, plant response rating; details: for Soybean plant response rating: scale 0 to 100 (0 no effect, 100 complete control)
In short: as §1

[14] = system: oilseed rape (Brassica napus); test: Test C postemergence, plant response rating; details: for Oilseed Rape plant response rating: scale 0 to 100 (0 no effect, 100 complete control)
In short: as §1

[15] = system: ryegrass, Italian (Italian ryegrass, Lolium multiflorum); test: Test C postemergence, plant response rating; details: for Ryegrass, Italian plant response rating: scale 0 to 100 (0 no effect, 100 complete control)
In short: as §1

kochia (Kochia scoparia) = test: Test C preemergence, plant response rating
[16] = system: surinam grass (Brachiaria decumbens); test: Test C preemergence, plant response rating
[17] = system: galium (catchweed bedstraw, Galium aparine); test: Test C preemergence, plant response rating
[18] = 125 g ai/ha, scale 0 to 100 (0 no effect, 100 complete control)

O=C(CCCCC(F)(F)F)c1c(Br)cccc1Oc1ncc(Cl)cn1 [Compound 82]
20: Plant response rating, Corn (corn (Zea mays); 16 g ai/ha, scale of 0 to 100) | Plant response rating, Corn (corn (Zea mays); 31 g ai/ha, scale 0 to 100) | Foxtail, Giant plant response rating ([2]; 125 g ai/ha) | Nutsedge, Yellow plant response rating ([5]; 62 g ai/ha) | Crabgrass, Large plant response rating ([12]; 125 g ai/ha) | Ryegrass, Italian plant response rating ([15]; 62 g ai/ha)
25: Corn plant response rating (corn (Zea mays); 62 g ai/ha) | Corn plant response rating (corn (Zea mays); 125 g ai/ha) | Plant response rating, Oat, Wild ([6]; 16 g ai/ha, scale of 0 to 100) | Plant response rating, Soybean (soybean (Glycine max); 16 g ai/ha, scale of 0 to 100) | Ryegrass, Italian plant response rating ([15]; 125 g ai/ha) | Plant response rating, Surinam Grass ([16]; 62 g ai/ha, scale 0 to 100)
35: Plant response rating, Velvetleaf ([3]; 16 g ai/ha, scale of 0 to 100) | Plant response rating, Ragweed ([7]; 31 g ai/ha, scale 0 to 100) | Plant response rating, Blackgrass ([13]; 31 g ai/ha) | Soybean plant response rating (soybean (Glycine max); 62 g ai/ha) | Plant response rating, Surinam Grass ([16]; 125 g ai/ha, scale of 0 to 100)
85: Lambsquarters plant response rating ([8]; 62 g ai/ha) | Galium plant response rating ([10]; 62 g ai/ha)
10: Plant response rating, Foxtail, Giant ([2]; 16 g ai/ha, scale of 0 to 100) | Plant response rating, Foxtail, Giant ([2]; 31 g ai/ha, scale 0 to 100) | Foxtail, Giant plant response rating ([2]; 62 g ai/ha) | Plant response rating, Barnyardgrass ([4]; 16 g ai/ha) | Plant response rating, Barnyardgrass ([4]; 31 g ai/ha) | Barnyardgrass plant response rating ([4]; 62 g ai/ha) | Plant response rating, Nutsedge, Yellow ([5]; 16 g ai/ha, scale of 0 to 100) | Plant response rating, Nutsedge, Yellow ([5]; 31 g ai/ha, scale 0 to 100) | Nutsedge, Yellow plant response rating ([5]; 125 g ai/ha) | Plant response rating, Wheat ([9]; 31 g ai/ha, scale 0 to 100) | Plant response rating, Crabgrass, Large ([12]; 16 g ai/ha, scale of 0 to 100) | Plant response rating, Surinam Grass ([16]; 31 g ai/ha, scale 0 to 100)
80: Plant response rating, Galium ([17]; 125 g ai/ha, scale of 0 to 100)
60: Barnyardgrass plant response rating ([4]; 125 g ai/ha) | Ragweed plant response rating ([7]; 62 g ai/ha) | Plant response rating, Soybean (soybean (Glycine max); 31 g ai/ha, scale 0 to 100)
55: Ragweed plant response rating ([7]; 125 g ai/ha)
5: Plant response rating, Oat, Wild ([1]; 62 g ai/ha, scale 0 to 100) | Plant response rating, Oat, Wild ([1]; 125 g ai/ha, scale of 0 to 100) | Plant response rating, Wheat ([9]; 16 g ai/ha, scale of 0 to 100) | Plant response rating, Ryegrass, Italian ([15]; 16 g ai/ha, scale of 0 to 100)
95: Plant response rating, Waterhemp ([11]; 31 g ai/ha, scale 0 to 100) | Waterhemp plant response rating [11, 18] | Plant response rating, Oilseed Rape ([14]; 31 g ai/ha, scale 0 to 100) | Oilseed Rape plant response rating ([14]; 62 g ai/ha) | Oilseed Rape plant response rating ([14]; 125 g ai/ha) | Plant response rating, Kochia (kochia (Kochia scoparia); 125 g ai/ha, scale of 0 to 100)
45: Plant response rating, Velvetleaf ([3]; 31 g ai/ha, scale 0 to 100) | Blackgrass plant response rating ([13]; 125 g ai/ha)
50: Oat, Wild plant response rating ([6]; 125 g ai/ha) | Plant response rating, Galium ([10]; 16 g ai/ha, scale of 0 to 100) | Plant response rating, Kochia (kochia (Kochia scoparia); 31 g ai/ha, scale 0 to 100)
15: Plant response rating, Ryegrass, Italian ([15]; 31 g ai/ha, scale 0 to 100)
30: Wheat plant response rating [9, 18] | Plant response rating, Crabgrass, Large ([12]; 31 g ai/ha, scale 0 to 100) | Crabgrass, Large plant response rating ([12]; 62 g ai/ha) | Plant response rating, Blackgrass ([13]; 16 g ai/ha)
70: Plant response rating, Lambsquarters ([8]; 16 g ai/ha, scale of 0 to 100) | Plant response rating, Oilseed Rape ([14]; 16 g ai/ha, scale of 0 to 100)
0: Plant response rating, Oat, Wild ([1]; 31 g ai/ha, scale 0 to 100) | Plant response rating, Galium ([17]; 31 g ai/ha, scale 0 to 100) | Plant response rating, Galium ([17]; 62 g ai/ha, scale 0 to 100)
90: Lambsquarters plant response rating ([8]; 125 g ai/ha) | Galium plant response rating ([10]; 125 g ai/ha) | Plant response rating, Kochia (kochia (Kochia scoparia); 62 g ai/ha, scale 0 to 100)
75: Velvetleaf plant response rating [3, 18] | Plant response rating, Lambsquarters ([8]; 31 g ai/ha, scale 0 to 100) | Plant response rating, Galium ([10]; 31 g ai/ha, scale 0 to 100)
40: Plant response rating, Oat, Wild ([6]; 31 g ai/ha, scale 0 to 100) | Oat, Wild plant response rating ([6]; 62 g ai/ha) | Plant response rating, Ragweed ([7]; 16 g ai/ha, scale of 0 to 100) | Blackgrass plant response rating ([13]; 62 g ai/ha) | Soybean plant response rating (soybean (Glycine max); 125 g ai/ha)
65: Plant response rating, Waterhemp ([11]; 16 g ai/ha, scale of 0 to 100)

From US11053204B2, “Pyrimidinyloxy benzene derivatives as herbicides” (FMC Corporation, priority 2015, dated 2021)
